From US20250170104A1, “INHIBITORS OF PSEUDOMONAS AERUGINOSA VIRULENCE FACTOR Lasß” (priority 2022, published 2025) come the findings set out here.

The target of one data set is HDAC3 (Homo sapiens (Human), UniProt O15379). Nature of the data set: HDAC inhibition. Format: biochemical. The note with it: read-out: Selectivity IC50 HDAC3. The method, then:
HDAC3 and HDAC8 Inhibitor Screening Assay kits were purchased from Sigma-Aldrich. The assay was performed according to the guidelines of the manufacturer using trichostatin as a positive control. Fluorescence signals were measured in a CLARIOstar plate reader (BMG Labtech).

A short description of a further data set: Cytotoxicity assay. The following applies: human. Format: cell-based. On the procedure: HepG2, HEK293 or A549 cells (2×10^5 cells per well) were seeded in 24-well, flat-bottomed plates. Culturing of cells, incubations, and OD measurements were performed as described previously (Int. J. Cancer 2007, 121, 206-210). Twenty-four hours after seeding the cells, the incubation was started by the addition of test compound in a final DMSO concentration of 1%. The living cell mass was determined after 48 h. At least two independent measurements were performed for each compound.

The next data set has as its system P. aeruginosa PA-14. Nature of the data set: MIC determination assay / antibacterial activity. Format: cell-based. The note with it: Pseudomonas aeruginosa, PA14. The method, then: Assays regarding the determination of the minimum inhibitory concentration (MIC) were performed as described previously (Elgaher W A M, Fruth M, Groh M, Haupenthal J, Hartmann R W. Expanding the scaffold for bacterial RNA polymerase inhibitors: design, synthesis and structure-activity relationships of ureido-heterocyclic-carboxylic acids. RSC Adv. 2013 Dec. 3; 4(5):2177-94). The experiments were based on the P. aeruginosa strain PA14. For the case that no MIC value could be determined due to activity reasons, percentage (%) inhibition at 100 μM (or lower, depending on the solubility of the compounds) was calculated. The OD600 was measured 0 and 16 h after inhibitor addition in a CLARIOstar Platereader (BMG Labtech, Ortenberg, Germany).

The subject of data set [1] is P. aeruginosa PAO1 (strain DSM22644). Nature of the data set: G. mellonella larvae survival after PAO1 infection. Format: in vivo. The note with it: for Final survival percentage of larvae: 3 CFU/Larva, 24 h. The method, then:
Bacteria were grown overnight, diluted to OD600 of 0.025 in 10 ml medium, and grown for approx. 2 hours at 37° C. inside a shaker incubator until the OD600 of 1.8-2 is reached. The culture was then serially diluted in sterile PBS (pH=7.2). Bacterial densities of 3000, 300, 30, and 3 CFU/Larva were selected for injection into groups of 15 larvae. A total volume of 5 μl was injected into each larva via the hindmost left proleg by using a syringe pump and Sterican® needles (0.30×12 mm, 30G×½). In addition, control group without injection for the quality of the larvae and a PBS control to monitor the effect of the injection were included in the experiment. All test groups and control groups were incubated at 37° C. in the dark and monitored every 2 hours from 17 hours post-infection.
In vivo evaluation of compounds 162 and 169. Bacteria were cultured and prepared according to the previous section. Final concentrations of 50 μM, 25 μM, and 12.5 μM in combination with 3 CFU/Larva were injected into groups of 15 larvae. In addition to no injection and PBS controls, one group was infected with 3 CFU/Larva and considered the negative control. All test groups and control groups were incubated at 37° C. in the dark and monitored every 2 hours from 17 hours post-infection.

A further data set deals with purified LasB (Pseudomonas aeruginosa (strain ATCC 15692 / DSM 22644 / CIP 104116 / JCM 14847 / LMG 12228 / 1C / PRS 101 / PAO1), UniProt P14756). Description: Ex vivo lung homogenate assay with purified LasB. Format: biochemical. The method, then:
The lung homogenate was prepared from pig lung, which was stored at −80° C. After thawing the lung tissue was cut into pieces of approximately 1.5 cm diameter and 0.5 to 1 cm thickness. Subsequently the bits were flash frozen in liquid nitrogen and lyophilized for 48 h.
1.2 g dried tissue was then ball milled using an IKA Tube Drive and the respective 50 mL ball milling tubes. 20 steel balls were used with target rpm of 6000, reversing the spinning direction every 30 seconds for a total of 10 min. After 10 min the tube was detached and inverted to loosen the powder. The ball milling was repeated with the same setup twice again.
To the powdery tissue 50 mL of a 10 mM Tris buffer including 2 mM CaCl2 with a pH of 8.0 was added and the IKA Tube Drive used again with the same settings as described before for 10 min to disperse the tissue powder in the aqueous buffer. The yielded lung homogenate was pipetted into 15 mL falcons and stored at −80° C. until further use.
To perform the LasB activity/inhibition assay a compound dilution was prepared in DMSO yielding a 100 fold concentration of the final concentration in the assay. LasB was diluted from a higher stock solution to a 6 μM stock in the same buffer as used for the lung homogenate. The assay was performed in Eppis. With a stepper pipette 10 μL of the prepared LasB solution was added to the Eppis to yield a final protein concentration of 300 nM. Then 188 μL of thawed lung homogenate was added with a stepper pipette. Finally, 2 μL of the 100 fold compound dilutions were added and mixed by pipetting up and down. The Eppis were incubated at 37° C. with a shaking speed of 1000 rpm for 4 h.
After 4 h, the Eppis were centrifuged at a speed of 14,000 rpm, 4° C. for 10 min to separate the soluble cleaved Elastin fragments from the non-cleaved insoluble part. 100 μL of the obtained supernatant was transferred to new Eppis, and the same volume of concentrated hydrochloric acid added. […]
Peak areas and response ratios were calculated using Xcalibur Quan browser with Amprolium set as internal standard. […]

HDAC3, sequence (O15379 whole entry, looked up): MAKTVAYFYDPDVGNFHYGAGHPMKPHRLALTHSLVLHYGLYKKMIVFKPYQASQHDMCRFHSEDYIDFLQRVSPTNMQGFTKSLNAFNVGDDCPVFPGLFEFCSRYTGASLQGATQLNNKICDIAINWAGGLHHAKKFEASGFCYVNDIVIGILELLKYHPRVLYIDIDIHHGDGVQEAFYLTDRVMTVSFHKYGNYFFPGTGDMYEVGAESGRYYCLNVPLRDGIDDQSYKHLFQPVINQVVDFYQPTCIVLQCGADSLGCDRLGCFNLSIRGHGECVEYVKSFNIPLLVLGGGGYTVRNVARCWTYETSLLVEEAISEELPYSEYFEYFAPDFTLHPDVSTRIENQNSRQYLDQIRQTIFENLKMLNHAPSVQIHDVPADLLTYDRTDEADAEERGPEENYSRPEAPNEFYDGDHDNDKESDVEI
HDAC3, sequence (Q9Y618 whole entry partner, looked up): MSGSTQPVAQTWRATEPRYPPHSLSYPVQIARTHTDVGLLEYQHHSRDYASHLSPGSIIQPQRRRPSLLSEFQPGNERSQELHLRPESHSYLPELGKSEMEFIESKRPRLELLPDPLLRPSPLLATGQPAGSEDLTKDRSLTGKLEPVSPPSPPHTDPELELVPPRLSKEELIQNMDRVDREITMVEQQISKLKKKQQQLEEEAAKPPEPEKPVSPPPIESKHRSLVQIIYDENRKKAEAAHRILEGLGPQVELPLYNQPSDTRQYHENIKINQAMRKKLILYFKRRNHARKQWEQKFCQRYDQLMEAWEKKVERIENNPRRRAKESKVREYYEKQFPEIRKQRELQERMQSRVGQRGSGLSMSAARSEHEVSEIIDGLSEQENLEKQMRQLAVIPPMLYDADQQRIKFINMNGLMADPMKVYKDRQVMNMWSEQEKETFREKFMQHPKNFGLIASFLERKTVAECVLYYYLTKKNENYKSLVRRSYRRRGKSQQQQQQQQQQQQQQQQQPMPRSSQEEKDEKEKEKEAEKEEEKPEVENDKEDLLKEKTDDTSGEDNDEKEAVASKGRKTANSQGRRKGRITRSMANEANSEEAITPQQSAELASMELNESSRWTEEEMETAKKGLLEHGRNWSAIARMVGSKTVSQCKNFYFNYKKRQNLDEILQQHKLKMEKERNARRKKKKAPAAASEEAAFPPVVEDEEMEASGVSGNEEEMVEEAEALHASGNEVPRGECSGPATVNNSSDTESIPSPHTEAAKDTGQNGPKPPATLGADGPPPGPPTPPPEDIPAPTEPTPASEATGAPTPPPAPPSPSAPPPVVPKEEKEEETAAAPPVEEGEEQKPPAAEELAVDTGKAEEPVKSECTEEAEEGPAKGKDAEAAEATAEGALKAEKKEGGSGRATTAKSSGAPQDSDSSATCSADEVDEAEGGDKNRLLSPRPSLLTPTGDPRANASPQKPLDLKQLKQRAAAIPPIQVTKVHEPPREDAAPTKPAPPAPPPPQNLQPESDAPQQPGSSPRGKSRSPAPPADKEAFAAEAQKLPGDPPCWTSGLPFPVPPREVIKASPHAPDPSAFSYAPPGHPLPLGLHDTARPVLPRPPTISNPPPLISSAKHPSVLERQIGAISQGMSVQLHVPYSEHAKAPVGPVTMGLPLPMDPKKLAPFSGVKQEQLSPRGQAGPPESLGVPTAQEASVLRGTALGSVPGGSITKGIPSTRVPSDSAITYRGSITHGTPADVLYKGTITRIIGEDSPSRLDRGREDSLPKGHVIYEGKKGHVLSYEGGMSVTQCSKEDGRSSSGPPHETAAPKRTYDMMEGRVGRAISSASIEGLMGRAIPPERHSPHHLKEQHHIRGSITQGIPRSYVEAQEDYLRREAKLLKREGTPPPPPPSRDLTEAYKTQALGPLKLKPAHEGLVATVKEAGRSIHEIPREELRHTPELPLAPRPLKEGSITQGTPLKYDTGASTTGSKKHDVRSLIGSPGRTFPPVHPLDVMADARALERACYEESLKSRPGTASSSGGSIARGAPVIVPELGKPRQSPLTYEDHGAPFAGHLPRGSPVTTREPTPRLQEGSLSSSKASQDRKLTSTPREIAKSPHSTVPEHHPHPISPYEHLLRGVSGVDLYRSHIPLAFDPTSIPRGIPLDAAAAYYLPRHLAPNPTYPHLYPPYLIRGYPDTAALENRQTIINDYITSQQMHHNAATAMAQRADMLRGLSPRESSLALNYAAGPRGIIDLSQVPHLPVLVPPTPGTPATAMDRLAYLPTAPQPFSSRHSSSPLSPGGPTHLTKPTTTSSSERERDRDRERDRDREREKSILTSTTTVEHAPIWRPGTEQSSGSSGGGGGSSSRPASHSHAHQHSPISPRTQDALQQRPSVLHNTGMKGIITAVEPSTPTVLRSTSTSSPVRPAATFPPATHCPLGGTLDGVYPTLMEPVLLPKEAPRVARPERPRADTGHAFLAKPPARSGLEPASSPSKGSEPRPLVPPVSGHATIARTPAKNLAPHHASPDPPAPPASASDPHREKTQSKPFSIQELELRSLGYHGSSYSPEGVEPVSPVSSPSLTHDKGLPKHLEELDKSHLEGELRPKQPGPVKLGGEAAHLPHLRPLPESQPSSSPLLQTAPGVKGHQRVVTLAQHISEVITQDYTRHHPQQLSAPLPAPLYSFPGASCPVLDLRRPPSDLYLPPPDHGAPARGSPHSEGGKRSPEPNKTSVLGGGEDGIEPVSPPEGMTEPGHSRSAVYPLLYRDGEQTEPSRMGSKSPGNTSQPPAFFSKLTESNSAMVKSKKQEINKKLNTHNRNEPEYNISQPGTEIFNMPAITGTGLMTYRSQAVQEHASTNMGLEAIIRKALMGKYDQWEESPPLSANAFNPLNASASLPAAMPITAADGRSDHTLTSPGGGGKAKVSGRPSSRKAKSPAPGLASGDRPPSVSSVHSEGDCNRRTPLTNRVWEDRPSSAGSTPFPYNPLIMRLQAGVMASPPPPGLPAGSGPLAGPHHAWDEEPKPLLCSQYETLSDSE
purified LasB, sequence (P14756 198-498): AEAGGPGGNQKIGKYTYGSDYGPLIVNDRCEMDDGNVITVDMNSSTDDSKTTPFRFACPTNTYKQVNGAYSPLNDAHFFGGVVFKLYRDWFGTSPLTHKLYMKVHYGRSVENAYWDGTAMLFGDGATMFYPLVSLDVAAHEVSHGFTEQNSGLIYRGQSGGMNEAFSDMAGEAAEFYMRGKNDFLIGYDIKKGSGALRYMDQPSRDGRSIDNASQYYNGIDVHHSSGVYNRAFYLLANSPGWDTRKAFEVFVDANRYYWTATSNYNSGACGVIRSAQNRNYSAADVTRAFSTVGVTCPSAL

Turning to `CC(C)CC(C(=O)NO)C(=O)Nc1ccc(Cn2cc(CNS(=O)(=O)CC(C)C)nn2)cc1` (stereo not shown) [Compound 169, 2-(Hydroxycarbamoyl)-N-[4-[[4-[(isobutylsulfonylamino)methyl]triazol-1-yl]methyl]phenyl]-4-methyl-pentanamide], the IC50 (as a rule, the concentration at which inhibition is half-maximal) at HDAC3 was > 100 µM; with P. aeruginosa PA-14, > 100 µM; against purified LasB, 0.077 µM. Also, the IC50 at 48 h in “Cytotoxicity assay” (A549 cells), in the data set “Cytotoxicity assay” (HEK293 cells) and in “Cytotoxicity assay” (HepG2 cells) was > 100 µM in each case. The “Final survival percentage of larvae” value in data set [1] (12.5 μM) was 53%; in data set [1] (25 μM), 73%; in data set [1] (50 μM), 82%. Also, the “Improvement in survival of larvae compared to negative control” value in data set [1] (50 μM, vs 3 CFU/Larva without treatment) is 40%.
